Source: the supplement of paper PMC9265050, “Inhibition of RNA Binding in SND1 Increases the Levels of miR-1-3p and Sensitizes Cancer Cells to Navitoclax” (Cancers, 2022)

System: SW480
Experiment: drug sensitivity score (DSS, integrated dose-response area); higher = more sensitive (stronger viability reduction); extreme values may be limits of the assay
How it was run: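 After 7 days of induction with 0.1 µg/mL doxycycline, SW480 cells stably harbouring inducible control or SND1-targeting shRNA were plated at 1000 cells per well in 384-well plates preloaded with 525 small-molecule inhibitors at five concentrations. CellTiter-Glo viability readings were taken 72 h later. Drug sensitivity scores come from integrating the area under a fitted non-linear dose–response model.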

[1] = shRNA: SND1 shRNA1 (SND1 silenced)
[2] = shRNA: SND1 shRNA2 (SND1 silenced)
[3] = shRNA: control shRNA (non-targeting)

Row | Structure (SMILES) | drug sensitivity score [1] | drug sensitivity score [2] | drug sensitivity score [3]
1 | CC(=O)NCC(=O)N1[C@@H]2CC[C@H]1c1ccc(Nc3ncc(C(F)(F)F)c(NC4CCC4)n3)cc12 | 17.4 DSS | 14.2 DSS | 13.2 DSS
2 | CNC(=O)c1ccc(C)c(-n2c(C)cc(OCc3ccc(F)cc3F)c(Br)c2=O)c1 | 0 DSS | 1 DSS | 0 DSS
3 | Cc1[nH]c(/C=C2\C(=O)Nc3ccccc32)c(C)c1CCC(=O)O [Orantinib] | 0 DSS | 0 DSS | 0.1 DSS
4 | CO[C@H]1C[C@@H]2CC[C@@H](C)[C@@](O)(O2)C(=O)C(=O)N2CCCC[C@H]2C(=O)O[C@H]([C@H](C)C[C@@H]2CC[C@@H](O)[C@H](OC)C2)CC(=O)[C@H](C)/C=C(\C)[C@@H](O)[C@@H](OC)C(=O)[C@H](C)C[C@H](C)/C=C/C=C/C=C/1C [Sirolimus] | 7.8 DSS |  | 6.9 DSS
5 | O=C(Nc1cccc(Nc2ncc(Br)c(NCCc3cnc[nH]3)n2)c1)N1CCCC1 [BX-912] | 6.7 DSS | 6.5 DSS | 8.5 DSS
6 | Oc1ccc2c(c1)CC[C@H](c1ccccc1)[C@@H]2c1ccc(OCCN2CCCC2)cc1 [Lasofoxifene] | 0.8 DSS | 0.7 DSS | 2 DSS
7 | O=C(NC1CCNCC1)c1n[nH]cc1NC(=O)c1c(Cl)cccc1Cl [AT7519] | 10.7 DSS | 9.1 DSS | 14.4 DSS
8 | CC(C)C[C@@H](C(=O)N[C@H](C(=O)OC1CCCC1)c1ccccc1)[C@H](O)C(=O)NO [Tosedostat] | 4.4 DSS | 3.2 DSS | 3.2 DSS
9 | COc1cc2nccc(Oc3ccc(NC(=O)C4(C(=O)Nc5ccc(F)cc5)CC4)cc3)c2cc1OC [Cabozantinib] | 0 DSS | 2.7 DSS | 0.6 DSS
10 | CN(N=O)C(=O)N[C@@H](C=O)[C@@H](O)[C@H](O)[C@H](O)CO [Streptozocin] | 0.8 DSS | 5.9 DSS | 4.1 DSS
11 | CC(=O)O[C@]1(C(C)=O)CC[C@H]2[C@@H]3C=C(C)C4=CC(=O)CC[C@]4(C)[C@H]3CC[C@@]21C [Megestrol acetate] | 0 DSS | 0 DSS | 0 DSS
12 | COCC1(CO)C(=O)C2CCN1CC2 (configuration not stated) [APR-246] | 0 DSS | 1.1 DSS | 2 DSS
13 | COc1cccc2c1C(=O)c1c(O)c3c(c(O)c1C2=O)C[C@@](O)(/C(CO)=N/NC(=O)CCCCCN1C(=O)C=CC1=O)C[C@@H]3O[C@H]1C[C@H](N)[C@H](O)[C@H](C)O1 [Aldoxorubicin] | 7.5 DSS | 5.7 DSS | 8.4 DSS
14 | COc1cccc2cc(-c3nc([C@H]4CC[C@H](C(=O)O)CC4)n4ncnc(N)c34)[nH]c12 [OSI-027] | 5.4 DSS | 7.1 DSS | 2.5 DSS
15 | CC[C@H](CC#N)OC(=O)N[C@@H](C)c1cccc(NC(=O)Nc2ccc(-c3cnco3)c(OC)c2)c1 [AVN944] | 13.4 DSS |  | 12.3 DSS
16 | C[C@@H]1C[C@H]2[C@@H]3CCC4=CC(=O)C=C[C@]4(C)[C@@]3(F)[C@@H](O)C[C@]2(C)[C@@]1(O)C(=O)CO [Dexamethasone] | 0 DSS | 1.8 DSS | 1.3 DSS
17 | O=C(O)CCCCC(CCSCc1ccccc1)SCc1ccccc1 (configuration not stated) [CPI-613] | 0 DSS |  | 0 DSS
18 | C#Cc1cccc(Nc2ncnc3cc(OCCOC)c(OCCOC)cc23)c1 [Erlotinib] | 2.6 DSS | 2.5 DSS | 2.4 DSS
19 | Nc1nc(N)c2nc(-c3cccc(O)c3)c(-c3cccc(O)c3)nc2n1 [TG100-115] | 0 DSS | 2.6 DSS | 4.9 DSS
20 | CO[C@H]1C[C@@H]2CC[C@@H](C)[C@@](O)(O2)C(=O)C(=O)N2CCCC[C@H]2C(=O)O[C@H]([C@H](C)C[C@@H]2CC[C@@H](OP(C)(C)=O)[C@H](OC)C2)CC(=O)[C@H](C)/C=C(\C)[C@@H](O)[C@@H](OC)C(=O)[C@H](C)C[C@H](C)/C=C/C=C/C=C/1C [Ridaforolimus] | 5.9 DSS |  | 2.3 DSS
21 | O=C(O)c1ccc(O)c2ncccc12 [IOX-1] | 1.7 DSS | 1.1 DSS | 0.7 DSS
22 | Cc1ccc(NC(=O)c2ccc(CN3CCN(C)CC3)cc2)cc1Nc1nc(-c2cccnc2)cs1 [Masitinib] | 3.1 DSS | 3.4 DSS | 4.6 DSS
23 | C=C1C[C@@H]2[C@H](CC[C@]3(C)C(=O)CC[C@@H]23)[C@@]2(C)C=CC(=O)C=C12 [Exemestane] | 3.1 DSS | 3 DSS | 4.6 DSS
24 | Cc1nc(=O)c2cc(CN(C)c3ccc(C(=O)N[C@@H](CCC(=O)O)C(=O)O)s3)ccc2[nH]1 [Raltitrexed] | 5.2 DSS | 0 DSS | 4.8 DSS

Row | Structure (SMILES) | drug sensitivity score [1] | drug sensitivity score [2] | drug sensitivity score [3]
25 | N.N.[Cl][Pt][Cl] [Cisplatin] | 8.1 DSS |  | 9.2 DSS
26 | CCNC(=O)C[C@@H]1N=C(c2ccc(Cl)cc2)c2cc(OC)ccc2-n2c(C)nnc21 | 2.7 DSS | 0 DSS | 0.6 DSS
27 | O=C(/C=C/c1cccnc1)NCCCCC1CCN(C(=O)c2ccccc2)CC1 [Daporinad] | 28.1 DSS |  | 27.8 DSS
28 | Cc1sc2c(c1C)C(c1ccc(Cl)cc1)=N[C@@H](CC(=O)Nc1ccc(O)cc1)c1nnc(C)n1-2 [OTX015] | 1.9 DSS | 0.8 DSS | 0.7 DSS
29 | NS(=O)(=O)NCCNc1nonc1/C(=N/O)Nc1ccc(F)c(Br)c1 [Epacadostat] | 0 DSS | 1.5 DSS | 0.1 DSS
30 | CN(C)C/C=C/C(=O)Nc1cc2c(Nc3ccc(F)c(Cl)c3)ncnc2cc1O[C@H]1CCOC1 [Afatinib] | 2.1 DSS | 1.8 DSS | 1.2 DSS
31 | CCc1c2c(nc3ccc(O)cc13)-c1cc3c(c(=O)n1C2)COC(=O)[C@]3(O)CC [SN-38] | 21.2 DSS | 12.5 DSS | 18.7 DSS
32 | Clc1ccccc1C(c1ccccc1)(c1ccccc1)n1cccn1 [TRAM-34] | 0 DSS | 0 DSS | 1.3 DSS
33 | C=CCc1cccc(/C=N/NC(=O)CN2CCN(Cc3ccccc3)CC2)c1O [PAC-1] | 6.8 DSS | 6.3 DSS | 7 DSS
34 | Nc1nc(OCc2cc(Br)cs2)c2[nH]cnc2n1 [Lomeguatrib] | 0 DSS | 1.9 DSS | 0.5 DSS
35 | CNC(=O)c1cc(Oc2ccc(NC(=O)Nc3cc(C(C)(C)C)nn3-c3ccc4ncccc4c3)c(F)c2)ccn1 [Rebastinib] | 0 DSS | 0 DSS | 0 DSS
36 | O=C(O)CNC(=O)c1c(O)c2ccccc2n(Cc2ccccc2)c1=O [IOX-2] | 5 DSS | 2.3 DSS | 6.2 DSS
37 | COc1cc2c(cc1O)CC[C@@H]1[C@@H]2CC[C@]2(C)[C@@H](O)CC[C@@H]12 [2-methoxyestradiol] | 5.5 DSS | 6.6 DSS | 6.1 DSS
38 | S=c1[nH]cnc2nc[nH]c12 [Mercaptopurine] | 9.7 DSS | 5.3 DSS | 6.3 DSS
39 | CN[C@@H]1C[C@H]2O[C@@](C)([C@@H]1OC)n1c3ccccc3c3c4c(c5c6ccccc6n2c5c31)C(=O)N[C@H]4O [UCN-01] | 24 DSS | 25 DSS | 25.4 DSS
40 | C/C=C1\NC(=O)[C@H]2CSSCC/C=C/[C@H](CC(=O)N[C@H](C(C)C)C(=O)N2)OC(=O)[C@H](C(C)C)NC1=O [Romidepsin] | 25.7 DSS | 25.1 DSS | 27.4 DSS
41 | Cc1nc(NC(=O)N2CCC[C@H]2C(N)=O)sc1-c1ccnc(C(C)(C)C(F)(F)F)c1 [Alpelisib] | 2.8 DSS | 5.2 DSS | 4.3 DSS
42 | N#Cc1c(Oc2ccc(F)c(NC(=O)Cc3cccc(C(F)(F)F)c3)c2)ccc2nc(NC(=O)C3CC3)sc12 [TAK-632] | 5.9 DSS | 0.5 DSS | 3.1 DSS
43 | CC(C)c1cc(-c2n[nH]c(=O)n2-c2ccc3c(ccn3C)c2)c(O)cc1O [Ganetespib] | 12.7 DSS | 12.5 DSS | 13.9 DSS
44 | C=CC(=O)Nc1cc2c(Nc3ccc(F)c(Cl)c3)ncnc2cc1OCCCN1CCOCC1 [Canertinib] | 7 DSS | 6.2 DSS | 8.6 DSS
45 | C[C@]12CC[C@@H]3c4ccc(OC(=O)N(CCCl)CCCl)cc4CC[C@H]3[C@@H]1CC[C@@H]2O [Estramustine] | 0 DSS |  | 0 DSS
46 | CC[C@]1(O)C[C@@H]2CN(CCc3c([nH]c4ccccc34)[C@@](C(=O)OC)(c3cc4c(cc3OC)N(C)[C@H]3[C@@](O)(C(=O)OC)[C@H](OC(C)=O)[C@]5(CC)C=CCN6CC[C@]43[C@@H]65)C2)C1 [Vinblastine] | 9.6 DSS | 8 DSS | 15.4 DSS
47 | COc1cc2ncnc(Nc3ccc(F)c(Cl)c3)c2cc1OCCCN1CCOCC1 [Gefitinib] | 3.6 DSS | 6.6 DSS | 3.7 DSS
48 | CC(C)(C)c1cnc(CSc2cnc(NC(=O)C3CCNCC3)s2)o1 [SNS-032] | 18.1 DSS | 15 DSS | 16.5 DSS
